Test system: recombinant retroviruses expressing the LacZ marker gene
Type: cell-based, retrovirus

Compound: OC[C@H]1O[C@@H]2O[C@H]3[C@H](O)[C@@H](O)[C@@H](O[C@H]4[C@H](O)[C@@H](O)[C@@H](O[C@H]5[C@H](O)[C@@H](O)[C@@H](O[C@H]6[C@H](O)[C@@H](O)[C@@H](O[C@H]7[C@H](O)[C@@H](O)[C@@H](O[C@H]8[C@H](O)[C@@H](O)[C@@H](O[C@H]1[C@H](O)[C@H]2O)O[C@@H]8CO)O[C@@H]7CO)O[C@@H]6CO)O[C@@H]5CO)O[C@@H]4CO)O[C@@H]3CO [β-cyclodextrin]
- enhancement of the retroviral inactivation, additional factor: 10

From patent publication US7378265B2 (priority 1998, dated 2008)
